Measurements: US20180235912A1, “PHARMACEUTICAL COMPOSITION FOR PREVENTING OR TREATING AUTOIMMUNE DISEASES COMPRISING THIOUREA DERIVATIVE” (SEOUL NATIONAL UNIVERSITY R & DB FOUNDATION, priority 2015, published 2018)

Key:
[1] = test system: peritoneal macrophages; experiment: Transcription of M2 anti-inflammatory genes in primarily cultured intraperitoneal macrophages, real-time PCR; format: cell-based; conditions: mouse intraperitoneal macrophages, 20 ng/mL IL-4, 20 μM, 24 hours
Experimental: Peritoneal macrophages of 7 to 8-week-old C57BL/6 male mice were isolated, seeded in a 24-well dish at a density of 1×10^6 cells/well, and then cultured for 4 hours in an RPMI1640 medium supplemented with 10% fetal bovine serum (FBS). A peritoneal macrophage culture broth was treated with each of 20 ng/mL of IL-4 and 20 μM JC1-40 or JC1-42, as indicated herein, for 24 hours. Thereafter, mRNA expression levels of the M2 anti-inflammatory markers, such as IL-10, Arg1, Retnla, and CD206, […], were measured using a real-time PCR (i.e., real-time reverse transcriptase-polymerase chain reaction; quantitative polymerase chain reaction) assay. In this case, the peritoneal macrophages were kept at 37° C. in a thermo-hygrostat chamber in which 5% CO2 and 95% air were maintained.

[2] = test system: peritoneal macrophages; experiment: Transcription of inflammatory genes in primarily cultured intraperitoneal macrophages, real-time PCR; format: cell-based; conditions: mouse intraperitoneal macrophages, 10 ng/mL LPS, 20 μM, 24 hours
Experimental: (§1) Peritoneal macrophages of 7 to 8-week-old C57BL/6 male mice were isolated, seeded in a 24-well dish at a density of 1×10^6 cells/well, and then cultured for 4 hours in an RPMI1640 medium supplemented with 10% fetal bovine serum (FBS). A peritoneal macrophage culture broth was treated with each of 10 ng/mL of LPS and 20 μM JC1-40 or JC1-42, as indicated herein, for 24 hours. In this case, the peritoneal macrophages were kept at 37° C. in a thermo-hygrostat chamber in which 5% CO2 and 95% air were maintained.
First, mRNA expression levels of the inflammatory markers, such as TNF-α, NOS2, IL-1β, and IL-6, which induce rheumatoid arthritis, were measured using a real-time PCR (i.e., real-time reverse transcriptase-polymerase chain reaction; quantitative polymerase chain reaction) assay. As a result, it can be seen that the mRNA levels of TNF-α, NOS2, IL-1β and IL-6, which are involved in the induction of inflammation, in the intraperitoneal macrophages were reduced when the cells were treated with JC1-40 or JC1-42, as shown in FIG. 2.

[3] = test system: EL4 cell line; experiment: RORα and IL-17 transcription in T cell line under Th17 differentiation conditions, real-time PCR; format: cell-based, mouse; conditions: EL4, 20 μM pre-treatment 24 hours, Th17 differentiation conditions 48 hours
Experimental: A mouse T cell EL4 cell line (5×10^5 cells/well) was seeded in a 24-well culture dish, pre-treated with 20 μM JC1-40 for 24 hours, and cultured for a day in a RPMI 1640 medium supplemented with 10% FBS. The EL4 cell line was kept at 37° C. in a thermo-hygrostat chamber in which 5% CO2 and 95% air were maintained. After the culturing, the cells were cultured for 48 hours under Th17 differentiation conditions (including 0.5 μg/mL of an anti-CD3 antibody, 1 μg/mL of an anti-CD28 antibody, 2 ng/mL of TGF-β, 20 ng/mL of IL-6, 10 μg/mL of anti-IL-4, and 10 μg/mL of anti-IFN-γ). Expression levels of RORα, which is a JC1-40-activated nuclear receptor, and IL-17, which is an inflammatory marker inducing rheumatoid arthritis, were measured using a real-time PCR (i.e., real-time reverse transcriptase-polymerase chain reaction; quantitative polymerase chain reaction) assay.

[4] = test system: peritoneal macrophages; experiment: M1 differentiation of intraperitoneal macrophages, PE-CD80 flow cytometry; format: cell-based; conditions: mouse intraperitoneal macrophages, 10 ng/mL LPS, 20 μM, 24 hours
Experimental: as §1
Further, a PE-CD80 antibody (eBioscience), which is a M1 marker for recognizing a change of M1 cells, was incubated in these cells for 30 minutes, and then subjected to flow cytometry. As a result, it was confirmed that the M1 differentiation was suppressed when the macrophages were treated with JC1-40, as shown in FIG. 3.

[5] = test system: osteoclast precursor differentiated from human PBMCs; experiment: Osteoclast differentiation-related factor expression in osteoclast precursor from PBMCs, real-time PCR; format: cell-based; conditions: M-CSF 25 ng/mL, RANKL 30 ng/mL, 10, 20, 40 μM
Experimental: PBMCs of a healthy human were isolated, stimulated with M-CSF (25 ng/mL) for 3 days to induce differentiation into an osteoclast precursor. After 3 days, a medium was replaced with a fresh one, and the cells were stimulated with varying concentrations of M-CSF (25 ng/mL), RANKL (30 ng/mL), and JC1-40 (10, 20, 40 μM), and cultured for 3 days. After the medium was replaced every 3 days, the same stimulus was applied to the cells while a differentiation state of the cells was observed.
RNA was isolated from the differentiated cells, and synthesized into cDNA. Thereafter, a change in mRNA expression levels of the osteoclast differentiation-related factors, Cathepsin K and TRAP, was analyzed using real-time PCR.

[6] = test system: CD4+ T cells from spleens; experiment: IL-17 secretion of spleen T cells, sandwich ELISA of culture supernatant; format: cell-based; conditions: mouse spleen CD4+ T cells, Th17 conditions
Experimental: CD4+ T cells were isolated from the spleens of 7 to 8-week-old C57BL/6 male mice, seeded in a 48-well dish at a density of 5×10^5 cells/well, pre-treated with a varying concentration of JC1-40 (0.1, 0.5, 10, and 50 μM) for 24 hours, and then cultured for a day in an RPMI1640 medium supplemented with 10% fetal bovine serum (FBS). After the culturing, the cells were cultured for 3 days under Th17 differentiation conditions (including 0.5 μg/mL of an anti-CD3 antibody, 1 μg/mL of an anti-CD28 antibody, 2 ng/mL of TGF-β, 20 ng/mL of IL-6, 10 μg/mL of anti-IL-4, and 10 μg/mL of anti-IFN-γ). Thereafter, the cells were collected, washed with a FACS buffer for flow cytometry, and then blocked at 4° C. for 15 minutes to inhibit non-specific binding. As a cell surface marker, an antibody against CD4 (anti-CD4-PerCP) was added thereto, and reacted at 4° C. for 30 minutes, and the resulting reaction mixture was washed with a perm wash buffer. […] A change of the stained cells was analyzed using flow cytometry.
In addition, a culture supernatant of the JC1-40-treated Th17 cells was collected to determine an amount of IL-17 using a sandwich ELISA method. […] Then, a PNPP/DEA solution was added thereto, and developed color, and the optical density was then measured at a wavelength of 405 nm.

[7] = test system: type II collagen-induced arthritis (CIA); experiment: Type II collagen-induced arthritis (CIA) animal model; format: in vivo, mouse; conditions: DBA male mice
Experimental: 6-week-old DBA male mice were inoculated with bovine CII (Chondrex Inc.) emulsified in CFA (Chondrex Inc.), and re-inoculated after 15 days to induce rheumatoid arthritis. After the first administration, JC1-40 dissolved in 0.5% carboxymethyl cellulose (CMC) was continuously orally administered three times a week to the mice at a dose of 10 mg/kg. A 0.5% CMC vehicle and 5 mg/kg of Enbrel as the positive control were administered to the other groups in the same manner. The ratio of the population of the mice developing an arthritic disease was calculated as incidence, and the arthritic tissues were pathophysiologically examined to calculate a degree of progression of the disease as a score and compare conditions of the rheumatoid arthritis disease between the groups. The clinical scores were evaluated using a clinical scoring system which scores the swelling and redness in feet or tail regions by observing arthritis lesions of mice with the naked eye every day to check a degree of progression of inflammatory diseases in the joints.

[8] = test system: Raw 264.7 macrophage cell line; experiment: Transcription of inflammatory genes in LPS-treated macrophage cell line, real-time PCR; format: cell-based, mouse; conditions: Raw 264.7, 50 ng/mL LPS, 20 μM, 24 hours
Experimental: A mouse macrophage cell line Raw 264.7 (ATCC TIB-71) was purchased from the American Type Culture Collection (ATCC). Raw 264.7 cells (2×10^5 cells/well) were seeded in a 6-well culture dish, and cultured for a day in a Dulbecco's modified Eagle's medium (DMEM) supplemented with 10% fetal bovine serum (FBS). The Raw 264.7 cells were kept at 37° C. in a thermo-hygrostat chamber in which 5% CO2 and 95% air were maintained. After the culturing, the cells were treated with 50 ng/mL of lipopolysaccharides (LPS) and 20 μM JC1-40 for 24 hours. Then, mRNA expression levels of the inflammatory markers, such as TNF-α, NOS2, IL-1β, and IL-6, which induce rheumatoid arthritis, were measured using a real-time PCR (i.e., real-time reverse transcriptase-polymerase chain reaction; quantitative polymerase chain reaction) assay.

[9] = test system: CD4+ T cells from spleens; experiment: Th17 differentiation of primarily cultured spleen T cells, flow cytometry; format: cell-based; conditions: mouse spleen CD4+ T cells, 0.1, 0.5, 10 and 50 μM, Th17 conditions 3 days
Experimental: CD4+ T cells were isolated from the spleens of 7 to 8-week-old C57BL/6 male mice, seeded in a 48-well dish at a density of 5×10^5 cells/well, pre-treated with a varying concentration of JC1-40 (0.1, 0.5, 10, and 50 μM) for 24 hours, and then cultured for a day in an RPMI1640 medium supplemented with 10% fetal bovine serum (FBS). After the culturing, the cells were cultured for 3 days under Th17 differentiation conditions (including 0.5 μg/mL of an anti-CD3 antibody, 1 μg/mL of an anti-CD28 antibody, 2 ng/mL of TGF-β, 20 ng/mL of IL-6, 10 μg/mL of anti-IL-4, and 10 μg/mL of anti-IFN-γ). Thereafter, the cells were collected, washed with a FACS buffer for flow cytometry, and then blocked at 4° C. for 15 minutes to inhibit non-specific binding. As a cell surface marker, an antibody against CD4 (anti-CD4-PerCP) was added thereto, and reacted at 4° C. for 30 minutes, and the resulting reaction mixture was washed with a perm wash buffer. After a Cytofix/Cytoperm process was performed at 4° C. for 20 minutes, the mixture was washed with a perm wash buffer. Anti-IL-17 PE was added thereto, and reacted at 4° C. for 30 minutes, and the resulting reaction mixture was washed with a perm wash buffer. A change of the stained cells was analyzed using flow cytometry.

[10] = test system: human peripheral blood mononuclear cells (PBMCs); experiment: Th17 and Treg differentiation of CD4+ cells from PBMCs, flow cytometry; format: cell-based; conditions: human CD4+ cells from PBMCs, 10, 20 and 40 μM, Th17 conditions 3 days
Experimental: CD4+ cells were isolated from peripheral blood mononuclear cells (PBMCs) of a healthy human, pre-treated with a varying concentration (10, 20, and 40 μM) of JC1-40, and then cultured for 3 days under Th17 differentiation conditions (including 0.5 μg/mL of anti-CD3, 0.5 μg/mL of anti-CD28, 10 μg/mL of anti-IFN-γ, 10 μg/mL of anti-IL-4, 20 ng/mL of IL-6, and 20 ng/mL of IL-1β). The expression of Th17 (anti IL-17 PE) and Treg (Anti Foxp3-FITC) in these cells was confirmed using flow cytometry. Also, an amount of IL-17 in these supernatants was measured using ELISA.

[11] = test system: EL4 cell line; experiment: Foxp3 expression in T cell line, immunostaining and confocal microscopy; format: cell-based, mouse; conditions: EL4, 20 μM, Th17 differentiation conditions, confocal microscopy
[12] = 10 mg/kg orally three times a week

CNC(=S)NCc1ccc(OCc2ccccc2)cc1 [JC1-40, 1-(4-benzyloxy-benzyl)-3-methyl-thiourea]
transcription level of Arg1 [1]: increased
transcription level of CD206 [1]: increased
transcription level of IL-10 [1]: increased
transcription level of Retnla [1]: increased
mRNA level of IL-1β [2]: reduced
mRNA level of IL-6 [2]: reduced
mRNA level of NOS2 [2]: reduced
mRNA level of TNF-α [2]: reduced
transcription level of IL-17 [3]: decreased
transcription level of the nuclear receptor RORα [3]: increased
M1 differentiation (CD80 marker) [4]: suppressed
expression of osteoclast differentiation-related factors (Cathepsin K and TRAP mRNA) [5]: significantly reduced
amount of secreted IL-17 protein in the culture broth [6]: reduced
arthritis incidence [7, 12]: suppressed
arthritis scores [7, 12]: suppressed
effect compared to Enbrel (positive control) ([7]; 10 mg/kg orally vs 5 mg/kg Enbrel): superior effect
transcription level of IL-1β [8]: reduced
transcription level of IL-6 [8]: reduced
transcription level of NOS2 [8]: reduced
transcription level of TNF-α [8]: reduced
amount of IL-17 positive cells differentiated into Th17 [9]: decreased
amount of (FOXP3 positive) cells differentiated into Treg [10]: increased
amount of (IL-17 positive) T cells differentiated into Th17 [10]: decreased
expression level of Foxp3 [11]: increased

CNC(=S)NCc1ccc(Oc2ccccc2)cc1 [JC1-42, 1-(4-phenoxy-benzyl)-3-methyl-thiourea]
transcription level of Arg1 [1]: increased
transcription level of CD206 [1]: increased
transcription level of IL-10 [1]: increased
transcription level of Retnla [1]: increased
mRNA level of IL-1β [2]: reduced
mRNA level of IL-6 [2]: reduced
mRNA level of NOS2 [2]: reduced
mRNA level of TNF-α [2]: reduced
